Measured values from patent US20240316038A1, “APOL1 INHIBITORS AND METHODS OF USE” (Maze Therapeutics, Inc., priority 2021, published 2024).

Tests used:
APOL1 G2 [1] = target: T1, APOL1 G2 (Homo sapiens, UniProt O14791, DEL388-389); assay: APOL1 calcium transport inhibition assay (GCaMP6f calcium influx, FLIPR) in HEK T-REx/GCaMP6f/APOL1 G2 K6.3 cells; format: cell-based; settings: inhibition of APOL1-mediated calcium influx; geometric mean of at least 2 assay runs, † = single assay run (technical duplicate)
T1 construct: expressed in transfected cells; host or cells: HEK293 T-REx clonal lines: HEK T-REx/GCaMP6f/APOL1 G2 K6.3 in A1, HEK293/T-REx APOL1 G2/clone #2 in A2
T1 sequence (O14791 with tags, fused parts or gaps DEL388-389): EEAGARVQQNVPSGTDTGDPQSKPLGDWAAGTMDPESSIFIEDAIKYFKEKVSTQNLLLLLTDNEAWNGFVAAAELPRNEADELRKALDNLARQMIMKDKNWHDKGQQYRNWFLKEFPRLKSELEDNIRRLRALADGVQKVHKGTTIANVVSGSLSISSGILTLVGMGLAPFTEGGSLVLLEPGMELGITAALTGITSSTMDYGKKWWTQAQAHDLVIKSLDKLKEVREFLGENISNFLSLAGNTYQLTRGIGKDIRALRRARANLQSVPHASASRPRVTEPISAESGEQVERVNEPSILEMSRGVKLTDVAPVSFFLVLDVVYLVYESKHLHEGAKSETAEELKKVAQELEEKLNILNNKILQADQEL
Method: A HEK293 clonal cell line was generated to stably express GCaMP6f, a genetically encoded calcium indicator, and inducibly express APOL1 G2 (HEK T-REx/GCaMP6f/APOL1 G2 K6.3). Cells were maintained in the following standard complete medium: DMEM with 4.5 g/L glucose and sodium pyruvate (BioWhittaker, Lonza, BE12-614F), supplemented with 10% FBS Performance Plus (Gibco, 16000044), 1% penicillin-streptomycin (BioWhittaker, DE17-602E), 2 mM ultraglutamine-1 (BioWhittaker cat. BE 17-605/U1), 50 μg/mL Zeocin (InvivoGen, ant-zn), 2.5 μg/mL Blasticidin (InvivoGen, ant-bl-5), and 25 μg/mL Hygromycin (InvivoGen, ant-hg). Standard propagation conditions consisted of plating 9×10^6, 4×10^6, 2×10^6 cells in a T225 flasks to be processed after 2, 3, or 4 days, respectively.
A source plate was generated containing 20 serially diluted compounds in DMSO (duplicate 8-point dose response). Next, 0.8 μL of compounds were transferred from the source plate to a destination plate prefilled with 79.2 μL of Ca^2+ free Tyrode's buffer (130 mM NaCl, 5 mM KCl, 1 mM MgCl2, 5 mM NaHCO3, 20 mM HEPES at pH 7.4). The destination plate was placed on a plate shaker (5 seconds at 2000 rpm) to mix. […] All transfer and mixing steps were conducted with an CyBi®-Well dispenser.
Cells were split by gently washing with DPBS (Euroclone, ECB4004L), followed by a 5-minute incubation (humidified, 37° C. with 5% CO2) with trypsin-EDTA solution (Euroclone, ECB3052D). Detached cells were diluted with standard complete medium without selective agents, counted, and plated in a 384 MTP microplate (GR4332CPL, Twin Helix) (10,000 cells/well in 25 μl/well) using a MATRIX WellMate dispenser. Plates were placed into a humidified incubator (37° C. with 5% CO2) overnight. The following day, 20 μL of doxycycline (Sigma, D9891) at 20 ng/mL in standard complete medium was added to cells with a CyBi @Drop dispenser to induce APOL1 G2 expression. After a 6-hour incubation (humidified, 37° C. with 5% CO2), cells were washed 3 times with Ca^2+ free Tyrode's Buffer (130 mM NaCl, 5 mM KCl, 1 mM MgCl2, 5 mM NaHCO3, 20 mM HEPES at pH 7.4) using a BIOTEK Microplate washer, such that 10 μL of buffer remained in each well after the final wash. Assay plates were then stored at room temperature for 10 minutes. Next, 10 μL of diluted compounds were transferred to the assay plate from the 2× compound plate using a CyBi®-Well dispenser. Compound incubation was then carried out at room temperature for 10 minutes. The assay plate was transferred to the […] and 20 μL of 10 mM Ca^2+ (final concentration=5 mM) Tyrode's buffer was injected.
Table B1 below summarizes the data from this experiment. Unless otherwise specified, AC50 and values are reported as the geometric mean of at least 2 assay runs on separate days. Each run represents the average of a technical replicate, where each compound was assayed twice in the same plate. A superscript † symbol indicates a value from the average of a technical replicate from a single assay run, where each compound was assayed twice in the same plate.
The AC50 values in Table B1 below reflect the compound's ability to prevent calcium influx by inhibiting APOL1. […] Compounds in Table B1 are referred to by the corresponding Compound Number in Table 1, which is also referred to in the synthetic examples. When one or more of the numbered compounds are identified by stereochemistry (for example, (R)- or (S)—), the specific stereoisomer for which data is provided in Table B1 may be identified by the elution order of such compound as described in the synthetic examples. To illustrate, Compound 2 is the first-eluting enantiomer of step 4 of Example 1 and Compound 3 is the second-eluting enantiomer of step 4 of Example 1. Further, by way of illustration, Compound 27 is the first-eluting enantiomeric mixture in step 4 of Example 7 and Compound 28 is the second-eluting enantiomeric mixture in step 4 of Example 7. […]

APOL1 G2 [2] = target: T1, APOL1 G2; assay: Rescue of HEK293 cell death caused by overexpression of APOL1 (CellTiter-Glo luminescence), HEK293/T-REx APOL1 G2/clone #2; format: cell-based; settings: reversal of cell death caused by overexpression of APOL1; geometric mean of at least 2 assay runs, † = single assay run (technical duplicate)
Method: A HEK293 clonal cell line overexpressing APOL1 G2 (HEK293/T-REx APOL1 G2/clone #2) was maintained in 1×DMEM-GlutaMax (Gibco, 10569-010) media with 10% tetracycline-free FBS (Takara Bio USA, 631101), 5 μg/mL Blasticidin (Gibco, A1113903), and 100 μg/mL Zeocin (Invitrogen, R25001) in T75 flasks. In preparation for the assay, this media was aspirated and 2 mL of prewarmed TrypLE Express (Gibco, 12605-010) was added to a flask to detach cells. The flask was then incubated (humidified, 37° C. with 5% CO2) for 3-5 minutes. Afterwards, 8 mL of prewarmed cell assay media (lx DMEM-GlutaMax media with 10% tetracycline-free FBS) was added to the trypsinized cells. The suspension was gently mixed, and cells were counted using a Countess Cell Counting Chamber (Invitrogen). The suspension was diluted using cell assay media to generate a working stock solution (166,667 cells/mL). Using a MultiDrop Combi (Thermo Electron Corp), 30 μL (final cell density=5,000 cells/well) of the working stock solution was dispensed into each well of white 384-well assay ready plates (Nunc™, 164610) containing 6 ng/mL doxycycline, to induce APOL1 expression, and compound. All compounds were plated in a duplicate 8-point dilution series that consisted of 3-fold stepwise dilutions (0.5% DMSO final). Assay plates were incubated (humidified, 37° C. with 5% CO2) for 17 hours. After the incubation, the plates were equilibrated at room temperature for 1 hour. Next, 15 μl of CellTiter-Glo® reagent (Promega, G7570) was added to each well using a MultiDrop Combi. Plates were placed on an orbital shaker (500 rpm) for 5 minutes to induce cell lysis and then incubated at room temperature for 10 minutes. Luminescence was measured on an Envision plate reader. Collaborative Drug Discovery software was utilized for graphing data. Plots were generated using a four parameter logistic curve fit.
Table B2 below provides the results from this experiment. Unless otherwise specified, EC50 values are reported as the geometric mean of at least 2 assay runs on separate days. Each run represents the average of a technical replicate, where each compound was assayed twice in the same plate. A superscript t symbol indicates a value from the average of a technical replicate from a single assay run, where each compound was assayed twice in the same plate. Compounds in Table B2 are referred to by the corresponding Compound Number in Table 1, which is also referred to in the synthetic examples. When one or more of the numbered compounds are identified by stereochemistry (for example, (R)- or (S)—), the specific stereoisomer for which data is provided in Table B2 may be identified by the elution order of such compound as described in the synthetic examples. To illustrate, Compound 2 is the first-eluting enantiomer of step 4 of Example 1 and Compound 3 is the second-eluting enantiomer of step 4 of Example 1. Further, by way of illustration, Compound 27 is the first-eluting enantiomeric mixture in step 4 of Example 7 and Compound 28 is the second-eluting enantiomeric mixture in step 4 of Example 7. Then, Compound 27 is separated into Compound 29 (the first-eluting enantiomer) and Compound 30 (the second-eluting enantiomer) in Example 8, and Compound 28 is separated into Compound 31 (the first-eluting enantiomer) and Compound 32 (the second-eluting enantiomer) in Example 8. Absolute stereochemistry of such compounds may be identified by methods known in the art.
Rescue EC50 values reported in Table B2 below represent the half-maximal effective concentration for reversal of cell death caused by overexpression of APOL1.

AC50 (APOL1 G2 [1]) [µM]	SMILES	EC50 (APOL1 G2 [2]) [µM]
3.16	CC(CN1C[C@@H](COc2ccc(S(C)(=O)=O)cc2)C[C@H]1C)c1cc(Cl)cc(C#N)c1 (single isomer, unassigned) [Compound 143, 3-chloro-5-[(2S or 2R)-1-[(2R, 4S)-4-[(4-meth-anesulfonyl-phenoxy)meth-yl]-2-methyl-pyrrolidin-1-yl]-propan-2-yl]-benzonitrile]	0.349
0.295	CN(c1ccc(OC[C@@H](O)CN2CCC(c3cccc(Cl)c3)C2(C)C)cc1)S(C)(=O)=O (single isomer, unassigned) [Compound 70, N-(4-((R)-(S)-3-((R) or (S)-3-(3-chlorophenyl)-2,2-dimethylpyrrolidin-1-yl)-2-hydroxypropoxy)phe-nyl)-N-methylmethanesulfon-amide]	0.303
0.62	CC1CC(COc2ccc(S(C)(=O)=O)cc2)CN1CCc1cc(Cl)cc(C#N)c1 (single isomer, unassigned) [Compound 201, 3-chloro-5-(2-((2R,4S or 2S,4R or 2R,4R or 2S,4S)-2-methyl-4-((4-(methylsulfonyl)phenoxy)methyl)pyrrolidin-1-yl)ethyl)benzonitrile]	1.68
0.349	C[C@@H]1CN(CC(O)c2cccc(C#N)c2)C[C@H]1COc1ccc(S(C)(=O)=O)cc1 (single isomer, unassigned) [Compound 128, 3-[(1R or 1S)-1-hydroxy-2-[(35,4S)-3-[(4-methanesulfonylphenoxy)methyl]-4-methylpyrrolidin-1-ylethyl]benzonitrile]	0.366
< 0.253	COC1CCN(CCc2cccc(Cl)c2)CC1COc1ccc(S(C)(=O)=O)cc1 (single isomer, unassigned) [Compound 38, (3S,4S) or (3R,4S) or (3 S,4R) or (3R,4R)-1-(3-chlorophenethyl)-4-methoxy-3-((4-(methylsulfonyl)phenoxy)methyl) piperidine]	0.407
0.441	CN=S(C)(=O)c1ccc(OC[C@H]2C[C@@H](C)N(CCc3cccc(C#N)c3)C2)cc1 (stereo partly drawn) [Compound 157, 3-[2-[(2R,4S)-2-methyl-4-({4-[methyl(methyli-mino)oxo-λ^6-sulfanyl]phenoxy}methyl)pyrrolidin-1-yl]ethyl}benzonitrile]	0.0389
0.104	C[C@@H]1CN(CCc2cccc(C#N)c2)C[C@H]1COc1ccc(S(=O)(=O)C2CNC2)cc1 [Compound 172, 3-{2-[(3S,4S)-3-{[4-(azetidine-3-sulfonyl)phenoxy]methyl}-4-methylpyrrolidin-1-yl]ethyl}benzonitrile]	0.203
0.236	C[C@@H]1CN(CCc2cc(F)cc(C#N)c2)C[C@H]1COc1ccc(S(C)(=O)=O)cc1 [Compound 195, 3-fluoro-5-{2-[(3S,4S)-3-[(4-methanesulfonylphenoxy)methyl]-4-methylpyrrolidin-1-yl]ethyl}benzonitrile]	0.226
0.374	C[C@@H]1C[C@H](COc2ccc(S(C)(=O)=O)cc2)CN1CC(O)c1cccc(C#N)c1 (single isomer, unassigned) [Compound 116, 3-[(1R or 1S)-1-hydroxy-2-[(2R,4S)-4-[(4-methanesulfonylphenoxy)methyl]-2-methylpyrrolidin-1-yl]ethyl] benzonitrile]	0.076
3.77	CC(Cc1cccc(Cl)c1)NC[C@H](O)COc1ccc(N(C)S(C)(=O)=O)cc1 (single isomer, unassigned) [Compound 96, N-(4-((S)-3-(((R) or (S)-1-(3-chlorophenyl)propan-2-yl)amino)-2-hydroxypropoxy)phe-nyl)-N-methylmethanesulfon-amide]	> 30

SMILES	AC50 (APOL1 G2 [1]) [µM]	EC50 (APOL1 G2 [2]) [µM]
CC(CN1C[C@@H](COc2ccc(S(C)(=O)=O)cc2)[C@H](C)C1)c1cc(Cl)cc(C#N)c1 (single isomer, unassigned) [Compound 148, 3-chloro-5-[(2S or 2R)-1-[(3S, 4S)-3-[(4-meth-anesulfonylphen-oxy)methyl]-4-methylpyrroli-din-1-yl]propan-2-yl]benzonitrile]	0.615	0.0808
